Experimental data reported in patent US20220395465A1, “STING AGONIST COMPRISING EXOSOMES COMBINED WITH IL-12 DISPLAYING EXOSOMES FOR TREATING A TUMOUR” (CODIAK BIOSCIENCES, INC., priority 2019, published 2022).

Tested on: MC38 tumor
Assay: MC38 mouse tumor model, tumor growth, complete responses and rechallenge
Format: in vivo, mice
Settings: equivalent IL-12 dose
Procedure: Potency was assessed in vitro using human PBMCs or murine splenocytes and in vivo using mouse subcutaneous tumor models. Local versus systemic pharmacology was determined with intratumoral injection in mice and subcutaneous injection in monkeys. All studies were benchmarked against recombinant IL-12 (rIL-12).
In addition, exoIL-12 administration led to enhanced intratumoral IFN-gamma AUC by about 4-fold as compared to recombinant IL-12 (FIG. 7B). […] This correlated with dose-dependent increases in tumor antigen-specific CD8+ T cells, which increased nearly 4-fold in exoIL-12 treated mice (FIG. 7E).
Suppression of tumor growth was again observed following MC38 rechallenge (FIG. 7D).

rIL-12: recombinant IL-12, benchmark in all studies
complete responses (share of mice): 0%
